Results: patent publication US9415055B2, “Cyclic amines” (H. Lundbeck A/S, priority 2012, dated 2016)

Target: P2X7 receptor (Homo sapiens (Human), UniProt Q99572)
Assay: P2X7 FLIPR assay: antagonism of BzATP response in 293 HEK cells stably expressing P2X7 receptor
Assay type: cell-based
Settings: FLIPR fluorescence (Fluo-4), agonist BzATP, 293 HEK cells stably transfected with P2X7 receptor
In short: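 Antagonist IC50 derived from FLIPR Tetra Fluo-4 calcium signal evoked by BzATP. Compound pre-incubation was 30 min at room temperature on P2X7-expressing HEK293 cells, seeded 24 h before in low-serum medium and dye-loaded 30 min at 37 °C then 30 min at RT.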

Chain of P2X7 receptor (Q99572 whole entry): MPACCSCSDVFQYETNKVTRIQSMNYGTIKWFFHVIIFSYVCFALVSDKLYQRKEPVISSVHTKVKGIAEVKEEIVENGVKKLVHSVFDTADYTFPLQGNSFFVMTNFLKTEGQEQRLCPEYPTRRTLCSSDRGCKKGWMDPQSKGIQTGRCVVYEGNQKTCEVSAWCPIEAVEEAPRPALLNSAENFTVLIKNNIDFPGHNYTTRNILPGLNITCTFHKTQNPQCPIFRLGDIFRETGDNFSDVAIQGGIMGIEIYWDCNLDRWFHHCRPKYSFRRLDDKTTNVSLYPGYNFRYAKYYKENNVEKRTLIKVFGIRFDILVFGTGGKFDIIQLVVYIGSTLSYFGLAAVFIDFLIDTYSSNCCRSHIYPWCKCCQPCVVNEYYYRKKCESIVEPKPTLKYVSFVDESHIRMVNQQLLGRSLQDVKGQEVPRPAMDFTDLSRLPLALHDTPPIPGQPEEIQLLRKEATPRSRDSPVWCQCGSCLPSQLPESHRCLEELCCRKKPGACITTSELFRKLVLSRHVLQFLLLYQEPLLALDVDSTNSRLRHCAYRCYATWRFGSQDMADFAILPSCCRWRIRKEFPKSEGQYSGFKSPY

IC50 [nM] | Structure (SMILES)
4.9 | O=C(NCC(c1cnc(C(F)(F)F)nc1)N1CCC(F)(F)CC1)c1c(Cl)ccc(F)c1Cl (single isomer, unassigned; (-)) [(−)2,6-dichloro-N-[2-(4,4-difluoro-1-piperidyl)-2-[2-(triflu] [(−)2,6-dichloro-5-fluoro-N-(2-(4,4-difluoropiperidin-1-yl)-2-(2-(trifluoromethyl)pyrimidin-5-yl)ethyl)benzamide]
6.9 | O=C(NCC(c1cnc(C(F)(F)F)nc1)N1CCC(F)(F)CC1)c1c(Cl)cccc1Cl (single isomer, unassigned; (-)) [(−)2,6-dichloro-N-[2-(4,4-difluoro-1-piperidyl)-2-[2-(triflu] [(−)2,6-dichloro-N-(2-(4,4-difluoropiperidin-1-yl)-2-(2-(trifluoromethyl)pyrimidin-5-yl)ethyl)benzamide]
53 | Cc1ncc(C(CNC(=O)c2c(Cl)cccc2Cl)N2CCC(F)CC2)cn1 (single isomer, unassigned; (-)) [(−)2,6-dichloro-N-[2-(4-fluoro-1-piperidyl)-2-(2-methylpyrim] [(−)2,6-dichloro-N-(2-(4-fluoropiperidin-1-yl)-2-(2-methylpyrimidin-5-yl)ethyl)benzamide]
15 | O=C(NCC(c1cnc(C(F)(F)F)nc1)N1CCC(F)CC1)c1c(Cl)cccc1Cl (single isomer, unassigned; (-)) [(−)2,6-dichloro-N-[2-(4-fluoro-1-piperidyl)-2-[2-(trifluorom] [(−)2,6-dichloro-N-(2-(4-fluoropiperidin-1-yl)-2-(2-(trifluoromethyl)pyrimidin-5-yl)ethyl)benzamide]

Further lines, the molecule ahead of its results:

Structure (SMILES) | IC50 [nM]
Cc1ncc(C(CNC(=O)c2c(Cl)ccc(F)c2Cl)N2CCC(F)(F)CC2)cn1 (single isomer, unassigned; (-)) [(−)2,6-dichloro-N-[2-(4,4-difluoro-1-piperidyl)-2-(2-methylp] [(−)2,6-dichloro-5-fluoro-N-(2-(4,4-difluoropiperidin-1-yl)-2-(2-methylpyrimidin-5-yl)ethyl)benzamide] | 37
Cc1ncc(C(CNC(=O)c2c(Cl)cccc2Cl)N2CCC(F)(F)CC2)cn1 (single isomer, unassigned; (-)) [(−)2,6-dichloro-N-[2-(4,4-difluoro-1-piperidyl)-2-(2-methylp] [(−)2,6-dichloro-N-(2-(4,4-difluoropiperidin-1-yl)-2-(2-methylpyrimidin-5-yl)ethyl)benzamide] | 22
O=C(NCC(c1cnc(C(F)(F)F)nc1)N1CCC(F)(F)CC1)c1c(Cl)cc(F)cc1Cl (single isomer, unassigned; (-)) [(−)2,6-dichloro-N-[2-(4,4-difluoro-1-piperidyl)-2-[2-(triflu] [(−)2,6-dichloro-4-fluoro-N-(2-(4,4-difluoropiperidin-1-yl)-2-(2-(trifluoromethyl)pyrimidin-5-yl)ethyl)benzamide] | 15
O=C(NCC(c1ccc(C(F)F)nc1)N1CCC(F)(F)CC1)c1c(Cl)cccc1Cl (single isomer, unassigned; (-)) [(−)2,6-dichloro-N-[2-[6-(difluoromethyl)-3-pyridyl]-2-(4,4-d] [(−)2,6-dichloro-N-(2-(2-(difluoromethyl)pyridin-5-yl)-2-(4,4-difluoropiperidin-1-yl)ethyl)benzamide] | 5.5
O=C(NCC(c1ccc(C(F)(F)F)nc1)N1CCOCC1)c1c(F)cccc1F (single isomer, unassigned; (-)) [(−)2,6-difluoro-N-[2-morpholino-2-[6-(trifluoromethyl)-3-pyr] [(−)2,6-difluoro-N-(2-morpholino-2-(6-(trifluoromethyl)pyridin-3-yl)ethyl)benzamide] | 480
O=C(NCC(c1cnc(C(F)(F)F)nc1)N1CCOCC1)c1ccccc1F (single isomer, unassigned; (-)) [(−)2-Fluoro-N-[2-morpholino-2-[2-(trifluoromethyl)pyrimidin-5-yl]ethyl]benzamide] | 44
